Experimental data: publication PMC6367500, “18β-glycyrrhetyl-3-O-sulfate would be a causative agent of licorice-induced pseudoaldosteronism” (Scientific Reports, 2019)

Experiments:
[1] = Concentrations of GL metabolites in plasma of a patient with pseudoaldosteronism (LC-MS/MS); type: in vivo, human; details: for plasma concentration, day 0 / concentration at 0 day: patient with licorice-induced pseudoaldosteronism, day 0; for plasma concentration, day 5 / concentration at 5 day: 5 days after stopping the Kampo formula; for concentration at 0 day: female; for concentration at 13 day: day 13
Excerpt: The patient was a person who had taken a Kampo formula containing licorice for 3 years (1.5 g of licorice for 1 year and 2 months, and 3 g for 1 year and 10 months). On day 0, we found a low plasma potassium level (2.1 mEq/l) and a high creatinine kinase level (364 U/l). Since low plasma renin activity and a low aldosterone level were also found, the patient was diagnosed with pseudoaldosteronism due to licorice. The administration of the Kampo formula was stopped and potassium supplementation of up to 100 mEq/day was started. In the plasma collected on day 0, we detected compound 3 at 8.6 µM, GA at 1.3 µM, and 2 at 87 nM, while 1, GL and 3MGA were not detected. On day 5, the plasma potassium level was still 2.1 mEq/l and potassium supplementation was continued. However, the plasma concentrations of 3 and GA had decreased to 3.6 µM and 0.65 µM, respectively. 2, 1, GL, and 3MGA were not detected. On day 13, the plasma potassium level was increased to 2.8 mEq/l, and the concentrations of 3 and GA were 61 nM and 11 nM, respectively. On day 14, the plasma potassium level was 3.4 mEq/l, and the concentration of 3 was 57 nM; GA was not detected. On day 18, the plasma potassium level had recovered to a normal level (4.9 mEq/l), so potassium supplementation was stopped.
Female SD rats or EHBRs (9-week-old) were anesthetized by an intraperitoneal (i.p.) injection of urethane (1 g/kg) and their jugular veins were exposed. GA suspended in 0.5% CMC was then administered orally (200 mg/kg) to the unconscious rats, and blood samples were collected from the jugular vein; urine samples were collected using a metabolic cage at an appropriate time over a 12-h period. […] Feces were homogenized in phosphate-buffered saline (PBS; 0.15 M, pH 7.2), centrifuged (1.2 × 10^4 g, 10 min), and the supernatants were collected. After 1 week as a washout period, female SD rats were anesthetized by an i.p. injection of urethane (1 g/kg) and their biliary tract was cannulated. GA (0.2 mg/kg) was injected into the jugular vein, and the bile was collected every hour for 4 h. Aliquots (10 µl) of plasma, urine, homogenate of feces, or bile were mixed with 20 µl of subtilisin (0.91 U/ml) and incubated at 37 °C for 30 min, followed by the addition of 70 µl of astragaloside IV solution (1 µg/ml in ethanol containing 0.5% formic acid, used as internal standard), and kept at −20 °C for 30 min. […] The transitions (precursor to daughter) monitored and retention times were as follows: ESI(+) 743.4 to 567.5 m/z for compound 1 (5.5 min), ESI(−) 565.5 to 96.5 m/z for 2 (6.2 min), ESI(−) 549.5 to 96.5 m/z for 3 (8.1 min), ESI(+) 647.6 to 453.6 m/z for 3MGA (9.2 min), ESI(+) 471.3 to 91.0 m/z for GA (8.8 min), ESI(+) 823.5 to 453.6 m/z for GL (10.8 min), and ESI(+) 785.4 to 143.0 m/z for astragaloside IV (3.0 min). Linear regressions over the concentration range of 32 nM to 20 µM for each compound were examined using the peak-area ratio of the compounds to their internal standards and the least-squares method (r^2 > 0.98).
The patient was a person. They provided written informed consent to the use of their blood and urine samples for this study, which was approved by the Independent Ethics Committee of Kameda General Hospital, in accordance with the Declaration of Helsinki. Their anamnesis was follows: hypertension, systemic lupus erythematosus, and antiphospholipid antibody syndrome (for 15 years), necrotic pulmonary aspergillosis (6 years ago), cerebral infarction (14 and 4 years ago, two times), and stomach cancer (3 years ago). After the operation for stomach cancer, the patient had been treated with Kracie Juzentaihoto Extract Granules for Ethical Use (Kracie Pharmaceuticals., Tokyo, Japan). […]

[2] = Plasma and urine levels of GA metabolites in EHBRs orally treated with GA (LC-MS/MS); type: in vivo, Eisai hyperbilirubinuria rats (EHBRs); details: for level in accumulated urine for 12 h / concentration at 12 h / level in accumulated urine for 12 h relative to that of 3MGA: GA 200 mg/kg orally; for concentration at 12 h: oral, read-out: plasma concentration at 12 h after treatment
Experimental: Female SD rats or EHBRs (9-week-old) were anesthetized by an intraperitoneal (i.p.) injection of urethane (1 g/kg) and their jugular veins were exposed. […] Feces were homogenized in phosphate-buffered saline (PBS; 0.15 M, pH 7.2), centrifuged (1.2 × 10^4 g, 10 min), and the supernatants were collected. After 1 week as a washout period, female SD rats were anesthetized by an i.p. injection of urethane (1 g/kg) and their biliary tract was cannulated. […] Aliquots (10 µl) of plasma, urine, homogenate of feces, or bile were mixed with 20 µl of subtilisin (0.91 U/ml) and incubated at 37 °C for 30 min, followed by the addition of 70 µl of astragaloside IV solution (1 µg/ml in ethanol containing 0.5% formic acid, used as internal standard), and kept at −20 °C for 30 min.

rat kidney slices = test: Uptake into rat kidney slices from pooled EHBR plasma; type: in vitro ADME, SD rats; details: pH 5.5, 2 h
Experimental: Kidney slices were prepared from SD rats and incubated with the pooled plasma, the pH of which pH was adjusted to 5.5 at 4 °C or 37 °C for 2 h. Figure 4A–C show the amounts of 2, 3, and GA accumulated in the kidney slices.
Figure 4 Uptake of 2 and 3 into rat kidney slices (A–C) or into MDCK II cells stably expressing OAT1 or OAT3 (D–F). Female EHBRs were orally treated with GA (200 mg/kg), and their plasma samples were collected […] after the treatment. The concentrations of compounds 2, 3, and GA in the plasma samples of EHBRs were 7.8, 11.5, and 7.0 µM, respectively. Kidneys were collected from normal SD rats, and the kidney slices were incubated with the plasma samples of EHBRs at 37 °C or 4 °C for 2 h (A–C). MDCK II cells stably expressing OAT1 or OAT3 were incubated with the plasma samples of EHBRs at 37 °C for 15 min (D–F). Then, the concentrations of compounds 2, 3, and GA in kidney slices or the cells were measured by LC-MS/MS. Data are expressed as mean ± S.E. (n = 3 for (C, D), and (E); n = 6 for (A, B), and F). *P < 0.05 and **P < 0.01 vs 4 °C group by Student’s t-test for (A–C), and vs mock cells by Dunnett’s multiple t-test for (D–F).
Uptake studies using rat kidney slices and cells stably expressing OAT1 and OAT3 were conducted with the same protocol as in our previous study. We used the same pooled plasma of female EHBRs orally treated with GA for 12 h as in our previous study.

[3] = female, EHBR (Eisai hyperbilirubinuria rat), rat, plasma

plasma concentration (below detection limit) ([1]; patient plasma sample, LC-MS/MS detection limit) | plasma concentration, day 0 [1] | plasma concentration, day 5 ([1]; patient) | level in accumulated urine for 12 h [2] [nmol] | concentration at 12 h [2, 3] [nM] | concentration at 0 day ([1]; human, plasma, oral) [nM] | concentration at 5 day ([1]; human, plasma, oral, patient) [nM] | concentration at 13 day ([1]; human, plasma, oral, patient) [nM] | plasma concentration, day 14 ([1]; patient, day 14) | uptake by kidney slices at 37 °C compared with 4 °C (rat kidney slices) | Tmax ([2]; female, EHBR (Eisai hyperbilirubinuria rat), rat, plasma, po, 0.2 g/kg, GA 0.20 g/kg orally, read-out: time of maximum plasma concentration) [h] | level in accumulated urine for 12 h relative to that of 3MGA [2] [fold] | concentration at 14 day ([1]; human, plasma, oral, patient, day 14) [nM] | plasma concentration, day 18 ([1]; patient, day 18) | SMILES
less than 3.2 nM | not detected | not detected | 0.31 | 90 | – | – | – | – | – | – | – | – | – | CC1(C)[C@@H](O[C@@H]2O[C@H](C(=O)O)[C@@H](O)[C@H](O)[C@H]2O)CC[C@]2(C)[C@H]3C(=O)C=C4[C@@H]5C[C@@](C)(C(=O)O)CC[C@]5(C)CC[C@@]4(C)[C@]3(C)CC[C@@H]12 [3MGA, 3-monoglucuronyl glycyrrhetinic acid, reference compound]
– | – | – | 0.05 | ~10000 | 1300 | 650 | 11 | not detected | not different | 1 | – | – | – | CC1(C)[C@@H](O)CC[C@]2(C)[C@H]3C(=O)C=C4[C@@H]5C[C@@](C)(C(=O)O)CC[C@]5(C)CC[C@@]4(C)[C@]3(C)CC[C@@H]12 [GA, glycyrrhetinic acid, reference compound]
– | not detected | not detected | – | ~10000 | – | – | – | – | – | – | 8 | – | – | CC1(C)[C@@H](OS(=O)(=O)O)CC[C@]2(C)[C@H]3C(=O)C=C4[C@@H]5C[C@@](C)(C(=O)O[C@@H]6O[C@H](C(=O)O)[C@@H](O)[C@H](O)[C@H]6O)C[C@H](O)[C@]5(C)CC[C@@]4(C)[C@]3(C)CC[C@@H]12 [compound 1, 22α-hydroxy-18β-glycyrrhetyl-3-O-sulfate-30-glucuronide]
– | – | not detected | – | ~10000 | 87 | – | – | – | significantly higher | – | 110 | – | – | CC1(C)[C@@H](OS(=O)(=O)O)CC[C@]2(C)[C@H]3C(=O)C=C4[C@@H]5C[C@@](C)(C(=O)O)C[C@H](O)[C@]5(C)CC[C@@]4(C)[C@]3(C)CC[C@@H]12 [compound 2, 22α-hydroxy-18β-glycyrrhetyl-3-O-sulfate]
– | – | – | – | ~10000 | 8600 | 3600 | 61 | – | significantly higher | – | 62 | 57 | below the detectable limit | CC1(C)[C@@H](OS(=O)(=O)O)CC[C@]2(C)[C@H]3C(=O)C=C4[C@@H]5C[C@@](C)(C(=O)O)CC[C@]5(C)CC[C@@]4(C)[C@]3(C)CC[C@@H]12 [compound 3, 18β-glycyrrhetyl-3-O-sulfate]
